In patent US12668770B2 (priority 2017, dated 2026):

How the values were obtained:
[1] = test system: WT strain of Nannochloropsis oculata NIES-2145; assay type: cell-based; set-up: key to viability, WT strain: −: Not grown; +: Suppressed in growth, (somewhat) dye fading; ++: Suppressed in growth; +++: Fully grown
[2] = test system: ΔNR strain (NR gene-disrupted strain); assay type: cell-based, Nannochloropsis oculata; set-up: key to viability, ΔNR strain: −: Not grown; +: Suppressed in growth, (somewhat) dye fading; ++: Suppressed in growth; +++: Fully grown
[3] = test system: ΔNRTΔNR strain (NRT-NR gene-disrupted strain); assay type: cell-based, Nannochloropsis oculata; set-up: key to viability, ΔNRTΔNR strain: −: Not grown; +: Suppressed in growth, (somewhat) dye fading; ++: Suppressed in growth; +++: Fully grown
[4] = test system: ΔNRT strain (NRT gene-disrupted strain); assay type: cell-based, Nannochloropsis oculata; set-up: key to viability, ΔNRT strain: −: Not grown; +: Suppressed in growth, (somewhat) dye fading; ++: Suppressed in growth; +++: Fully grown

SMILES: [K+].[O-][Cl+2]([O-])[O-] [KClO3, potassium chlorate]
- growth of WT strain on chloric acid-containing agar medium (FIG. 7) [1]: killed
- viability, WT strain [1]: −
- growth of ΔNR strain on chloric acid-containing agar medium (FIG. 7) [2]: growth was unable to be confirmed
- viability, ΔNR strain [2]: −
- growth of ΔNRTΔNR strain (Table 2) [3]: growth was able to be achieved
- growth of ΔNRTΔNR strain on chloric acid-containing agar medium (FIG. 7) [3]: more favorable growth was observed
- viability, ΔNRTΔNR strain [3]: + and +++ and ++
- growth of ΔNRT strain (Table 2) [4]: growth was confirmed
- growth of ΔNRT strain on chloric acid-containing agar medium (FIG. 7) [4]: growth was also confirmed
- viability, ΔNRT strain [4]: − and ++
